pIC50: −log10 of the molar value.
Experiments:
[1] = system: HCT116 cells; assay: Cell scratch test (migration), HCT116; assay type: cell-based; details: 24 h
Method: (§1) Cells were inoculated into six-well plates as long as they spread to the bottom of the wells after wall attachment. After 24 h of wall attachment, cells were scratched with a 200 μL pipette tip and then replaced with low serum medium (1% FBS) containing different concentrations of compounds. Spot photographs were taken at 0 h and 24 h after the scratch was made. Data analysis was performed using Adobe Photoshop 2021 (Adobe Systems Software Ireland Ltd., San Jose, CA, USA) and Image J2 (National Institutes of Health, Bethesda, MD, USA).

[2] = system: OVCAR3 cells; assay: Cell cycle detection by flow cytometry, OVCAR3; assay type: cell-based; details: 24 h
Method: (§2) Cells were plated at 300,000 cells overnight in six-well plates. III-13 was added in a dose-dependent fashion and then cells were incubated for 24 h. The cells were then fixed with 75% ethanol overnight at 4 °C. The cells were centrifuged, and ethanol was removed. The cells were washed twice with 1 × PBS following staining with DAPI (4′, 6′ diamino-2-phenylindole) and analyzed using Guava easyCyte HT (Merck KGaA, Darmstadt, Germany) with a blue filter. Experiments were performed in triplicate.

[3] = Liver microsomal stability, rat; assay type: in vitro ADME; details: Rat liver microsomes
Method: (§3) Compounds were incubated with mouse, rat, and human liver microsomal samples and NADPH at 37 °C for 5, 10, 20, 30, or 60 min. The reaction was terminated with a cold acetonitrile solution containing tolbutamide. Compound retention was determined by LC-MS/MS. The retention times, chromatographic acquisition, and chromatographic integration of compounds and positive control substances were analyzed using Analyst (AB Sciex, Framingham, MA, USA).

[4] = system: HCT116 cells; assay: Cell cycle detection by flow cytometry, HCT116; assay type: cell-based; details: 24 h
Method: as §2

[5] = system: OVCAR3 cells; assay: Cell proliferation assay (Celltiter-Glo), OVCAR3; assay type: cell-based; details: Homo sapiens, OVCAR-3, 120 h; OVCAR3 (overexpression of CCNE1), five days
Method: Celltiter-Glo Luminescent Cell Viability Assay (Promega, Madison, WI, USA) was used to detect cell viability according to the manufacturer’s instructions. This assay is a homogeneous method of determining the number of viable cells in a culture based on quantitation of the ATP present, an indicator of metabolically active cells. Cells were digested and paved in white-bottomed 96-well plates with 1000 cells/100 μL cell suspension solution; then, different concentrations of compounds were added the next day. TOV-21G and HCT116 were placed in the incubator for three days and OVCAR3 for five days. Then, 100 μL Celltiter-Glo solution was added and mixed for 5 min; the luminous intensity of each well was detected with a spectrophotometer (BioTek, Winooski, VT, USA). The experiment was repeated three times to calculate the cell survival rate.

[6] = Caco-2 permeability and transporter substrate evaluation; assay type: in vitro ADME; details: human, Caco-2, 2 μM
Method: Caco-2 cells were cultured in MEM with 20% FBS, penicillin (100 U/mL), and streptomycin (100 μg/mL) at 37 °C in 95% air and 5% CO2. Cells were seeded into 96-well cell plates and cultured continuously for 24 days for subsequent experiments. […] After 120 min of incubation, samples were collected from the apical and basal ends. The […] content of each sample was determined by liquid chromatography–tandem mass spectrometry (LC-MS/MS). The apparent […] coefficient and efflux ratio were calculated.

[7] = system: OVCAR3 cells; assay: Colony formation, OVCAR3; assay type: cell-based; details: 14 days
Method: Cells were inoculated in six-well plates at 1000 cells per well, and III-13 was added in a dose-dependent manner after 24 h. Cells were stained with Crystal Violet Staining Solution (Beyotime, Shanghai, China) at 14 days after incubation, and the cell colonies were counted using Image J.

[8] = biological target: T1, hERG (Homo sapiens, UniProt Q12809); assay: hERG assay in CHO cells stably expressing hERG; assay type: cell-based; details: maximum concentration of 30 μM
T1 construct: expressed in transfected cells; host or cells: CHO cells
T1 sequence (Q12809 whole entry): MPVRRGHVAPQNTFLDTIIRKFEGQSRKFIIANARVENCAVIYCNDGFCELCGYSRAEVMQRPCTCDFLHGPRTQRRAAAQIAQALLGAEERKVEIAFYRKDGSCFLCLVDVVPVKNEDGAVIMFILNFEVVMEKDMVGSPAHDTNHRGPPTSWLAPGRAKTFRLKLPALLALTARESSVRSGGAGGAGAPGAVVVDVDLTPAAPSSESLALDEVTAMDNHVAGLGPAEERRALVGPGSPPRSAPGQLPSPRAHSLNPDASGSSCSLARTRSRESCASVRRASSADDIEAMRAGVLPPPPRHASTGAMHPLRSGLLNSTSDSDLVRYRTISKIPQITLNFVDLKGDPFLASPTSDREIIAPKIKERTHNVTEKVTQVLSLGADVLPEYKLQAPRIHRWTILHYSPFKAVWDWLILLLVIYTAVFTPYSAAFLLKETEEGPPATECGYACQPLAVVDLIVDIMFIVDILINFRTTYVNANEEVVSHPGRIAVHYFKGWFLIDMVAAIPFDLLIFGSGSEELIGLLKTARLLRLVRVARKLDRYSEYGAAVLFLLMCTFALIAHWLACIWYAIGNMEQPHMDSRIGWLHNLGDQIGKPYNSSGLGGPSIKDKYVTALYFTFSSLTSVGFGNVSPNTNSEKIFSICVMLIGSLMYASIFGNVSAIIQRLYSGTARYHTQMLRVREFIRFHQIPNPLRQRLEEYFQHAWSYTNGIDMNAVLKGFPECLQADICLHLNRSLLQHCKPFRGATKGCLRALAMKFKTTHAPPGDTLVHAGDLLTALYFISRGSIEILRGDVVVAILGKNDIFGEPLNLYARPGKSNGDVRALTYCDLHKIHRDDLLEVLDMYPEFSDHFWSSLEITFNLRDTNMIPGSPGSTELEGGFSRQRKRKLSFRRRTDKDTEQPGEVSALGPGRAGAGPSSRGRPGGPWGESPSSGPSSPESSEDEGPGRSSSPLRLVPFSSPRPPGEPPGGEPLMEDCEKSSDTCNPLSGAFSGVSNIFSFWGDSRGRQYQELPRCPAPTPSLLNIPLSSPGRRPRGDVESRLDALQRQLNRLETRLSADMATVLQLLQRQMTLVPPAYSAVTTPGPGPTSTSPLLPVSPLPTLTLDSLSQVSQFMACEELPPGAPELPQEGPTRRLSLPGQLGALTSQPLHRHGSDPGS
Method: This test method is a reference to a previous study. CHO cells stably expressing hERG were cultured with medium containing 10% FBS, penicillin (100 U/mL), and streptomycin (100 μg/mL) in DMEM/F12 in an incubator at 37 °C, 5% CO2. Cultures were passaged in a 1:5 ratio every 48 h. The medium consisted of 90% F12, 10% FBS, G418 (100 μg/mL), and hygromycin B (100 μg/mL). On the day of the assay, the current should reach a steady state for at least 1 min prior to administration of the compounds, and the test current was measured again after 5 min of stimulation with different concentrations of the drug.

[9] = system: OVCAR3 cells; assay: Cell scratch test (migration), OVCAR3; assay type: cell-based; details: 24 h
Method: as §1

[10] = Liver microsomal stability, human; assay type: in vitro ADME; details: Human liver microsomes
Method: as §3

[11] = biological target: T2, CDK6 (Homo sapiens, UniProt Q00534); assay: Kinase antagonist activity assay (TR-FRET), CDK6; assay type: biochemical
T2 construct: purchased Thermo Fisher Scientific
T2 sequence (Q00534 whole entry): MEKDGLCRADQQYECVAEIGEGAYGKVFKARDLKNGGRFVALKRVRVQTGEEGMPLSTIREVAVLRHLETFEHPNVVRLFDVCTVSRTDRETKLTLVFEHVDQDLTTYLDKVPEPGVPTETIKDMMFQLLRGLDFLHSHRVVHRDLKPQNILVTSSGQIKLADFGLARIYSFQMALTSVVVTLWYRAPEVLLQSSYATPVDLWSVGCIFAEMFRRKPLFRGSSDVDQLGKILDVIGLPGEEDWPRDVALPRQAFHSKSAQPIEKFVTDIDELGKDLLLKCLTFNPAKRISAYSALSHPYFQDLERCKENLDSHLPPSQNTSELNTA
T2 sequence (P24385 whole entry partner): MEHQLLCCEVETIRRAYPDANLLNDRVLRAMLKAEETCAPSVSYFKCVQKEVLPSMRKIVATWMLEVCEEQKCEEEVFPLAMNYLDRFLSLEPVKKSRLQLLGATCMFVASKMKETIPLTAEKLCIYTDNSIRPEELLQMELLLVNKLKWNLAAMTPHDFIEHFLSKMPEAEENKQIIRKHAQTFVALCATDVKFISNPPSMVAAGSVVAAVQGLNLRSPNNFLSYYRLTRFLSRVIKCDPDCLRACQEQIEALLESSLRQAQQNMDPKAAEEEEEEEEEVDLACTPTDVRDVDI
Method: The compounds were solubilized with DMSO (Solarbio Life Sciences, Beijing, China), and 11 concentrations were serially diluted at 3-fold; 100 nL of compound was added to 384-well plates, 5 μL of 2 × enzyme mixture (Thermo Fisher Scientific, Waltham, MA, USA) was added, and 5 μL of buffer was added instead of the complete inhibition control wells. Then, 1000 rpm centrifugation was performed for 30 s followed by a 15 min incubation at 23 °C. Next, 5 μL of 2 × MLight-MBP peptide (PerkinElmer, Waltham, MA, USA) was added to each well, with 1000 rpm centrifugation for 30 s and incubation at 23 °C for 90 min. At the end of the incubation, the reaction was terminated with buffer containing 15 mM EDTA and 2 nM Eu-anti-P-MBP antibody (PerkinElmer, Waltham, MA, USA), centrifuged at 1000 rpm for 1 min, and incubated at 23 °C for 60 min; the plates were read on a Perkin Elmer Envision ([…]).

CC1(C)CCN1C(=O)O[C@@H]1CC[C@H](c2cc(NC(=O)Cc3ccc(N4CCCC4=O)cc3)n[nH]2)C1 [III-13]
migration rate [1]: decreased significantly
cell cycle arrest [2]: arrested HCT116 and OVCAR3 cells in the G0/G1 phase
CLint scaled [3]: 88.9 mL/min/kg
Remaining (T = 60 min) ([3]; 60 min): 22.8%
half-life ([3]; NADPH, 37 °C): 28.1 min
cell cycle arrest [4]: arrested HCT116 and OVCAR3 cells in the G0/G1 phase
pIC50 [5]: 6.94
IC90 [5]: 398 nM
Papp A→B at 120 min, 2 µM [6]: 1.6 ×10⁻⁶ cm/s
Papp B→A at 120 min, 2 µM [6]: 8.56 ×10⁻⁶ cm/s
efflux ratio at 120 min, 2 µM [6]: 5.34
number of colonies [7]: significant reduction
cardiotoxicity in hERG assay [8]: no cardiotoxicity
migration rate [9]: decreased significantly
CLint scaled [10]: 59.9 mL/min/kg
Remaining (T = 60 min) ([10]; 60 min): 15.4%
half-life ([10]; NADPH, 37 °C): 21.9 min
pIC50 [11]: 5.88
IC90 [11]: 16 µM

Reference: article PMC10856454, “Discovery of Novel Antitumor Small-Molecule Agent with Dual Action of CDK2/p-RB and MDM2/p53” (Molecules, 2024)
